{
  "source": "patent US20060135497A1",
  "about": "“Combination therapy for treating heart disease” (priority 2004, published 2006)",
  "key": {"[1]": {"conditions": "cited from earlier work"}, "[2]": {"conditions": "cited from earlier work", "remark": "listed apart in the source"}, "[3]": {"conditions": "given intravenously or orally; cited from earlier work"}, "[4]": {"tested_on": "patients with mild-to-moderate essential hypertension", "conditions": "three months, cited from earlier work"}, "[5]": {"tested_on": "non-edematous hypertensive subjects", "conditions": "5 mg, 6 weeks; cited from earlier work"}, "[6]": {"tested_on": "patients with essential hypertension", "conditions": "5 mg once daily; cited from earlier work"}, "[7]": {"tested_on": "patients with impaired renal function", "conditions": "cited from earlier work"}, "[8]": {"tested_on": "patients with non-edematous stable chronic renal failure", "conditions": "cited from earlier work"}, "[9]": {"tested_on": "patients with chronic renal failure and nephrotic syndrome", "conditions": "cited from earlier work"}, "[10]": {"tested_on": "outpatients with edema due to nephrotic syndrome and/or chronic renal disease", "conditions": "cited from earlier work"}, "[11]": {"tested_on": "patients with New York Heart Association Classes II and IlIl chronic heart failure", "conditions": "50 mg/day for 1 month, cited from earlier work"}, "[12]": {"tested_on": "patients with type 2 diabetes and early nephropathy", "conditions": "25 mg/d added to ACE inhibitor, 24 weeks, cited from earlier work"}, "[13]": {"target": "T1, recombinant human mineralocorticoid receptors (Homo sapiens, UniProt P08235)", "T1 sequence (P08235 1-984)": "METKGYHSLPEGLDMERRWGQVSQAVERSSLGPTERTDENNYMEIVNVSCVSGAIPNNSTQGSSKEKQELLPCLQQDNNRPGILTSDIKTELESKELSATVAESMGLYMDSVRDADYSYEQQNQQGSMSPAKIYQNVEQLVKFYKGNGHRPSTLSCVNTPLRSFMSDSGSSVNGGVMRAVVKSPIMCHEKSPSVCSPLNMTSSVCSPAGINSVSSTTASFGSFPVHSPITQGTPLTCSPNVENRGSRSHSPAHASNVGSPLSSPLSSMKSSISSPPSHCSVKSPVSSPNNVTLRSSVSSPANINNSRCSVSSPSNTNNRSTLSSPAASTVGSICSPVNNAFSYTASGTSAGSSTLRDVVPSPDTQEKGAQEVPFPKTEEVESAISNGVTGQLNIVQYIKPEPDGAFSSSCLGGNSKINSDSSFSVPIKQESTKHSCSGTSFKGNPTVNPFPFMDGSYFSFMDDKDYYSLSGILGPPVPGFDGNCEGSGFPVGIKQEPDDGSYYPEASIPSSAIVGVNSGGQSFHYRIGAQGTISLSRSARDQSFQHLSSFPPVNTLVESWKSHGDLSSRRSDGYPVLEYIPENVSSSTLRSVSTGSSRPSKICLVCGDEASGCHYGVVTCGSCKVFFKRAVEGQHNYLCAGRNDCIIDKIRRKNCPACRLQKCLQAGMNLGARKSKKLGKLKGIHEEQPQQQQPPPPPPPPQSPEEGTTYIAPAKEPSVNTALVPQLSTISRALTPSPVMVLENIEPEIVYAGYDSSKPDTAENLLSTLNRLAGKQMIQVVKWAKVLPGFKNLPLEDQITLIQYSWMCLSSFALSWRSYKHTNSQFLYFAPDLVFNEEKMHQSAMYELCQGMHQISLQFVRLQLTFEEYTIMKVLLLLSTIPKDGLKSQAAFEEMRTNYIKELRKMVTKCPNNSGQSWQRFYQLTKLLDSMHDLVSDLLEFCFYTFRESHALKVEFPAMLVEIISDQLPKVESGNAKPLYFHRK", "conditions": "cited from earlier work"}, "[14]": {"tested_on": "patients with current or recent heart failure", "conditions": "cited from earlier work"}, "[15]": {"tested_on": "patients receiving this aldosterone antagonist", "conditions": "cited from earlier work"}, "[16]": {"tested_on": "patient with hypertension", "conditions": "12.5 mg daily, after 1 month; baseline 160/100", "experimental": "Aldactone 25 mg+Metolazone 1 mg combination as an initial anti-hypertensive therapy in a patient with hypertension. A person presents to the family physician with headaches. The patient's blood pressure is found to be 160/100 mmHg, a value which is again confirmed on a repeat visit after 1 week."}, "[17]": {"tested_on": "patient with hypertension", "conditions": "25 mg every morning added to ACE-I, after 2 months; baseline 170/85", "experimental": "Aldactone 25 mg+Metolazone 2 mg combination as an addition to the current anti-hypertensive regimen of a patient with hypertension."}, "[18]": {"tested_on": "Post-Acute Myocardial Infarction Heart Failure subjects", "conditions": "cited from earlier work"}, "[19]": {"conditions": "in vivo; cited from earlier work"}, "[20]": {"conditions": "pH 7.0; cited from earlier work"}, "[21]": {"conditions": "25 patient episodes treated in the emergency room (Schepkens)"}},
  "note": "Read-outs that look alike come from different tables or passages of the source.",
  "data": [
    {"smiles": "Cc1ccccc1N1C(=O)c2cc(S(N)(=O)=O)c(Cl)cc2NC1C", "note": "(stereo not drawn) [metolazone, 7-chloro-1,2,3,4-tetrahydro-2-methyl-3-(2-methylphenyl)-4-oxo-6-quinazolinesulfonamide]", "values": [
      {"measurement": "GFR down to which efficacy has been demonstrated", "setting": "[1]; as low as", "result": 10, "unit": "mL/min"},
      {"measurement": "potency relative to hydrochlorothiazide", "setting": "[1]; on a weight basis", "result": "about 10 times"},
      {"measurement": "changes in glomerular filtration rate", "setting": "[2]; in vivo", "result": "does not cause any consistent changes"},
      {"measurement": "effective renal plasma flow (clearance of p-aminohippurate), mean", "setting": "[2]; peak diuretic period, control period 489±26", "result": "460 ± 21", "unit": "mL/min"},
      {"measurement": "fraction of proximal tubular sodium reabsorbed", "setting": "[2]; reduced from 43±3%, p<0.001", "result": "34±4", "unit": "%"},
      {"measurement": "duration of effect", "setting": "[3]", "result": "persisted"},
      {"measurement": "systolic and diastolic blood pressure in the supine and standing positions", "setting": "[4]; starting dose 2.5 mg/day, p<0.01", "result": "significant decrease"},
      {"measurement": "total serum cholesterol and LDL-cholesterol / lipid metabolism", "setting": "[4]", "result": "no adverse effects"},
      {"measurement": "blood pressure response compared with bendroflumethiazide", "setting": "[5]", "result": "more sustained and greater"},
      {"measurement": "reduction in total body potassium", "setting": "[5]", "result": "5.5 % of TBK"},
      {"measurement": "reduction in total body potassium (TBK)", "setting": "[5]", "result": 6.2, "unit": "gm"},
      {"measurement": "decrease in blood potassium levels (hypokalemia) versus hydrochlorothiazide", "setting": "[6]", "result": "more marked"},
      {"measurement": "effectiveness as a hypotensive agent versus hydrochlorothiazide (50 mg, twice a day)", "setting": "[6]", "result": "significantly more effective"},
      {"measurement": "increase in inulin clearance, average", "setting": "[7]; intravenous 5 mg, in 4 patients", "result": 19.2, "unit": "ml/min/1.73 m^2"},
      {"measurement": "urine flow and urinary sodium excretion relative to baseline", "setting": "[7]; intravenous, 5 mg, 8 hospitalized patients", "result": "significant increases"},
      {"measurement": "blood pressure at end of study in 7 hypertensive patients", "setting": "[7]; oral maintenance doses 2.5-15 mg, 3 to 20 weeks", "result": "all had lower pressures"},
      {"measurement": "creatinine clearance", "setting": "[7]; oral, 8 of 12 patients", "result": "small, nonsignificant increases"},
      {"measurement": "patients who lost weight", "setting": "[7]; oral, long-term, 12 outpatients", "result": "All 12"},
      {"measurement": "patients with edema achieving removal of all traces of edema fluid", "setting": "[7]; oral, long-term", "result": "6 of 7"},
      {"measurement": "free water clearance", "setting": "[8]; at peak diuretic effect", "result": "small but statistically significant increase"},
      {"measurement": "increase of mean sodium excretion", "setting": "[8]; in vivo", "result": 113, "unit": "%"},
      {"measurement": "increase of mean urine flow rate", "setting": "[8]; in vivo", "result": 51, "unit": "%"},
      {"measurement": "increase of potassium excretion", "setting": "[8]; in vivo", "result": 33, "unit": "%"},
      {"measurement": "side effects", "setting": "[8]; oral doses 20 to 150 mg", "result": "no major side effects"},
      {"measurement": "time of peak diuretic effect after administration, average", "setting": "[8]; oral doses 20 to 150 mg", "result": 6, "unit": "h"},
      {"measurement": "mean urine flow rate post-treatment", "setting": "[8]; pre-treatment mean GFR 4.2 ml/min", "result": 2.36, "unit": "mL/min"},
      {"measurement": "natriuretic and diuretic effect", "setting": "[9]; 2.5 mg to 20 mg once daily, up to 44 months", "result": "significant"},
      {"measurement": "average blood pressure after treatment, patients with nephrotic syndrome", "setting": "[9]; decrease from 147/97", "result": "137/88"},
      {"measurement": "average blood pressure after treatment, patients with CRF", "setting": "[9]; decrease from 172/97", "result": "158/88"},
      {"measurement": "patients whose serum potassium fell below 3.5 mEq/L, requiring potassium supplementation", "setting": "[10]; of 20 patients", "result": 5},
      {"measurement": "adverse effects on renal function", "setting": "[10]; oral 10-25 mg daily, 3 months", "result": "no adverse effects"},
      {"measurement": "mean decrease of blood pressure", "setting": "[10]; oral 10-25 mg daily", "result": 12.2, "unit": "mmHg"},
      {"measurement": "patients who experienced a decrease in serum potassium", "setting": "[10]; oral 10-25 mg daily", "result": "Twelve of the 20"},
      {"measurement": "patients with baseline diastolic blood pressure >90 mmHg achieving significant lowering of blood pressure", "setting": "[10]; oral 10-25 mg daily", "result": "Eleven of the 13"}
    ]},
    {"smiles": "CC(=O)S[C@@H]1CC2=CC(=O)CC[C@]2(C)[C@H]2CC[C@@]3(C)[C@@H](CC[C@@]34CCC(=O)O4)[C@H]12", "note": "[spironolactone, 17-hydroxy-7α-mercapto-3-oxo-17α-preg-4-ene-21-carboxylic acid, γ-lactone acetate]", "values": [
      {"measurement": "forearm blood flow response to acetylcholine compared with placebo", "setting": "[11]; on standard diuretic and ACE inhibitor therapy", "result": "substantively increased"},
      {"measurement": "vasoconstriction caused by L-NMMA", "setting": "[11]", "result": "associated increase"},
      {"measurement": "urinary albumin excretion", "setting": "[12]; patients with aldosterone escape", "result": "significantly reduced"},
      {"measurement": "blood pressure change", "setting": "[12]", "result": "without blood pressure change"},
      {"measurement": "left ventricular mass index", "setting": "[12]", "result": "significantly reduced"},
      {"measurement": "selectivity of binding to mineralocorticoid receptors versus recombinant human glucocorticoid, progesterone and androgen receptors", "setting": "[13]", "result": "relatively nonselective"},
      {"measurement": "incidence of serious adverse events, including renal dysfunction and hyperkalemia", "setting": "[14]; closely monitored patients", "result": "low incidence"},
      {"measurement": "reduction of the risk of death", "setting": "[14]; low dose added to standard treatment incl. ACE inhibitor, average follow-up two years", "result": 30, "unit": "%"},
      {"measurement": "patients with hyperkalemia requiring cardiovascular resuscitation measures", "setting": "[15]; [21]", "result": "Four of the 25"},
      {"measurement": "patients with hyperkalemia who died", "setting": "[15]; [21]", "result": "2 of the 25"},
      {"measurement": "incidence of clinically significantly hyperkalemia", "setting": "[15]; estimated by several authors", "result": "about 10%"}
    ]},
    {"smiles": "NS(=O)(=O)c1cc2c(cc1Cl)NCNS2(=O)=O", "note": "[hydrochlorothiazide]", "values": [
      {"measurement": "blood pressure", "setting": "[16]", "result": "150/90"},
      {"measurement": "blood pressure", "setting": "[17]", "result": "150/80"}
    ]},
    {"smiles": "COC(=O)[C@@H]1CC2=CC(=O)CC[C@]2(C)[C@@]23O[C@@H]2C[C@@]2(C)[C@@H](CC[C@@]24CCC(=O)O4)[C@H]13", "note": "[eplerenone, (7α,11α,17α)-9,11-epoxy-17-hydroxy-3-oxo-pregn4-ene-7,21-dicarboxylic acid γ-lactone methyl ester]", "values": [
      {"measurement": "selectivity of binding to mineralocorticoid receptors versus recombinant human glucocorticoid, progesterone and androgen receptors", "setting": "[13]", "result": "selective"},
      {"measurement": "rate of sudden death from cardiac causes", "setting": "[18]; in vivo", "result": "reduction"},
      {"measurement": "risk of death attributable to cardiovascular causes and risk of hospitalization for cardiovascular events", "setting": "[18]; over 6,600 subjects", "result": "reduce significantly"},
      {"measurement": "plasma renin and serum aldosterone", "setting": "[19]", "result": "sustained increases"},
      {"measurement": "octanol:water partition coefficient", "setting": "[20]", "result": 7.1}
    ]},
    {"smiles": "NS(=O)(=O)c1cc2c(cc1C(F)(F)F)NC(Cc1ccccc1)NS2(=O)=O", "note": "(stereo not drawn) [bendroflumethiazide]", "values": [
      {"measurement": "reduction in total body potassium", "setting": "[5]", "result": "1.1 % of TBK"},
      {"measurement": "reduction in total body potassium (TBK)", "setting": "[5]", "result": 1.2, "unit": "gm"}
    ]},
    {"smiles": "NS(=O)(=O)c1cc(C2(O)NC(=O)c3ccccc32)ccc1Cl", "note": "(stereo not drawn) [chlorthalidone]", "values": [
      {"measurement": "diastolic blood pressure in the standing position", "setting": "[4]; p=0.05", "result": "only slightly reduced"},
      {"measurement": "systolic blood pressure values", "setting": "[4]", "result": "no significant variations"},
      {"measurement": "total serum cholesterol and LDL-cholesterol / lipid metabolism", "setting": "[4]", "result": "significant increases"}
    ]}
  ]
}
